# Tested on: Leishmania donovani
# Experiment: Antileishmanial activity against Leishmania donovani axenic amastigotes after 72 hrs by serial dilution method
# Format: functional, organism-based
row,IC50 [µM],Compound
1,13.8,C[N+](C)(C)CCOP(=O)([O-])OCC(COCc1ccccc1)OCc1cccc2ccccc12 (stereo unspecified)
2,> 50,Cc1noc(C)c1COCC(COP(=O)([O-])OCC[N+](C)(C)C)OCc1ccccc1 (stereo unspecified)
3,4.15,C[N+](C)(C)CCOP(=O)([O-])OCC(COCc1ccccc1)OCc1ccccc1 (stereo unspecified)
4,33.1,C[N+](C)(C)CCOP(=O)([O-])OCC(COCn1nnc2ccccc21)OCc1cccc2ccccc12 (stereo unspecified)
5,26.7,C=CCOCC(COP(=O)([O-])OCC[N+](C)(C)C)OCc1cccc2ccccc12 (stereo unspecified)
6,> 50,CCCCOC(COCn1nnc2ccccc21)COP(=O)([O-])OCC[N+](C)(C)C (stereo unspecified)
7,> 50,C[N+](C)(C)CCOP(=O)([O-])OCC(COCn1nnc2ccccc21)OCc1ccccc1 (stereo unspecified)
8,6.75,C=CCOCC(COP(=O)([O-])OCC[N+](C)(C)C)OCCCCCCCCCCCCCCCCCC (stereo unspecified)
9,> 50,CCCCOC(COCc1c(C)noc1C)COP(=O)([O-])OCC[N+](C)(C)C (stereo unspecified)
10,1.3,CCCCCCCCCCCCCCCCCCOC(COCc1c(C)noc1C)COP(=O)([O-])OCC[N+](C)(C)C (stereo unspecified)
11,0.66,CCCCCCCCCCCCCCCCCCOC(COCn1nnc2ccccc21)COP(=O)([O-])OCC[N+](C)(C)C (stereo unspecified)
12,42.5,C=CCOCC(COP(=O)([O-])OCC[N+](C)(C)C)OCCCC (stereo unspecified)
13,> 50,C[N+](C)(C)CCOP(=O)([O-])OCC(COCc1ccccc1)Oc1ccccc1 (stereo unspecified)
14,28.2,C[N+](C)(C)CCOP(=O)([O-])OCC(COCn1nnc2ccccc21)Oc1ccccc1 (stereo unspecified)
15,> 50,Cc1noc(C)c1COCC(COP(=O)([O-])OCC[N+](C)(C)C)OCc1cccc2ccccc12 (stereo unspecified)
16,1.6,CCCCCCCCCCCCCCCCCCOC(COCc1ccccc1)COP(=O)([O-])OCC[N+](C)(C)C (stereo unspecified)
17,> 50,CCCCOC(COCc1ccccc1)COP(=O)([O-])OCC[N+](C)(C)C (stereo unspecified)
18,0.22,CCCCCCCCCCCCCCCCOP(=O)([O-])OCC[N+](C)(C)C [MILTEFOSINE]
19,> 50,Cc1noc(C)c1COCC(COP(=O)([O-])OCC[N+](C)(C)C)Oc1ccccc1 (stereo unspecified)

# Tested on: Leishmania donovani
# Experiment: Antileishmanial activity against Leishmania donovani infected macrophage
# Format: functional, organism-based
row,IC50 [µM],Compound
1,0.78,CCCCCCCCCCCCCCCCCCOC(COCn1nnc2ccccc21)COP(=O)([O-])OCC[N+](C)(C)C (stereo unspecified)
2,1.74,CCCCCCCCCCCCCCCCOP(=O)([O-])OCC[N+](C)(C)C [MILTEFOSINE]

# From ChEMBL document CHEMBL1155926, “Parallel synthesis and antileishmanial activity of ether-linked phospholipids” (Bioorg Med Chem Lett, 2008)
